Activity calls are given as the source filed them. The rule behind the calls is not given here.
Assays:
[1] = target: T1, Protein mono-ADP-ribosyltransferase PARP3 (Homo sapiens) (UniProt Q9Y6F1); experiment: Inhibition of PARP3 (unknown origin)
T1 sequence (whole entry): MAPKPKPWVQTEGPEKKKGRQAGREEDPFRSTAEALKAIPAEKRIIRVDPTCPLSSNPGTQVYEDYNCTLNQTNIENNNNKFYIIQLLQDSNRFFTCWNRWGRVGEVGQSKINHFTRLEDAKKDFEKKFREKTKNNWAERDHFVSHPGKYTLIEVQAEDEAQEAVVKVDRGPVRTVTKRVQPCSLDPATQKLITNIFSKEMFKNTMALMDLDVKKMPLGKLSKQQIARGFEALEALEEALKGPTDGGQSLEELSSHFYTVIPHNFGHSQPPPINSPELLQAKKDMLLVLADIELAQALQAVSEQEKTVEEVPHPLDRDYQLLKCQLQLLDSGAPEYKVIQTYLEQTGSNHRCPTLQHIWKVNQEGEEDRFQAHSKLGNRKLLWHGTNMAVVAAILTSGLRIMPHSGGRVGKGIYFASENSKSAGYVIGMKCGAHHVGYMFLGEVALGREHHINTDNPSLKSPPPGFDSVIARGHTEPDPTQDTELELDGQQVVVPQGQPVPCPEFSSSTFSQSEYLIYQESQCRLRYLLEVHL

[2] = target: Protein mono-ADP-ribosyltransferase PARP6 (Homo sapiens) (UniProt Q2NL67); experiment: Inhibition of PARP6 (unknown origin)
[3] = target: T2, Protein mono-ADP-ribosyltransferase TIPARP (Homo sapiens) (UniProt Q7Z3E1); experiment: Inhibition of PARP7 (unknown origin)
T2 sequence (whole entry): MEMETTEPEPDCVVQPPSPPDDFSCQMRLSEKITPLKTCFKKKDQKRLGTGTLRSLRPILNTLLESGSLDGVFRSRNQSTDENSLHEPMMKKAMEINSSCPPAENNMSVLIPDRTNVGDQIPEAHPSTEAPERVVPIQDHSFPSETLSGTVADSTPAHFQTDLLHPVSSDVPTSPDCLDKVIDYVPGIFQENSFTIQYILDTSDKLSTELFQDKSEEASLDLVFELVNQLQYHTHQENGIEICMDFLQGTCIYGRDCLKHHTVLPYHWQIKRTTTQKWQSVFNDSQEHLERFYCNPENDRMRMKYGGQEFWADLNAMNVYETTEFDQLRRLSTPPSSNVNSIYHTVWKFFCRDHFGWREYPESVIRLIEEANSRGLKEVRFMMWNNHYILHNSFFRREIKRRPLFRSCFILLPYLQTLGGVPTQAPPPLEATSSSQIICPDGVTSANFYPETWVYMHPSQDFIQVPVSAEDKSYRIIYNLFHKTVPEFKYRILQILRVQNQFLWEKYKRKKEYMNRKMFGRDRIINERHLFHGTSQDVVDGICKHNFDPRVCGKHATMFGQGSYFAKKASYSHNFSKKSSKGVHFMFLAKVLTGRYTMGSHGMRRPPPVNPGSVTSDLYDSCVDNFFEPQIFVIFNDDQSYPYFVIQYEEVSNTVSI

[4] = target: T3, Protein mono-ADP-ribosyltransferase PARP11 (Homo sapiens) (UniProt Q9NR21); experiment: Inhibition of PARP11 (unknown origin)
T3 sequence (whole entry): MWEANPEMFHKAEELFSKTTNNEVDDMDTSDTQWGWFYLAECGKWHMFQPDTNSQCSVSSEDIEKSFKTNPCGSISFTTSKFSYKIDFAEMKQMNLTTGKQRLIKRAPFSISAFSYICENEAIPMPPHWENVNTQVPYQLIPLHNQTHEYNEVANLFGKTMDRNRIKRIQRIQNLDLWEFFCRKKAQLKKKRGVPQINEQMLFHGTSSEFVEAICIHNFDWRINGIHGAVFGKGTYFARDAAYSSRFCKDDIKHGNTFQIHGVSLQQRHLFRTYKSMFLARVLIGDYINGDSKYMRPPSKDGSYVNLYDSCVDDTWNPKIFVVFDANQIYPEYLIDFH

[5] = target: T4, Protein mono-ADP-ribosyltransferase PARP12 (Homo sapiens) (UniProt Q9H0J9); experiment: Inhibition of PARP12 (unknown origin)
T4 sequence (whole entry): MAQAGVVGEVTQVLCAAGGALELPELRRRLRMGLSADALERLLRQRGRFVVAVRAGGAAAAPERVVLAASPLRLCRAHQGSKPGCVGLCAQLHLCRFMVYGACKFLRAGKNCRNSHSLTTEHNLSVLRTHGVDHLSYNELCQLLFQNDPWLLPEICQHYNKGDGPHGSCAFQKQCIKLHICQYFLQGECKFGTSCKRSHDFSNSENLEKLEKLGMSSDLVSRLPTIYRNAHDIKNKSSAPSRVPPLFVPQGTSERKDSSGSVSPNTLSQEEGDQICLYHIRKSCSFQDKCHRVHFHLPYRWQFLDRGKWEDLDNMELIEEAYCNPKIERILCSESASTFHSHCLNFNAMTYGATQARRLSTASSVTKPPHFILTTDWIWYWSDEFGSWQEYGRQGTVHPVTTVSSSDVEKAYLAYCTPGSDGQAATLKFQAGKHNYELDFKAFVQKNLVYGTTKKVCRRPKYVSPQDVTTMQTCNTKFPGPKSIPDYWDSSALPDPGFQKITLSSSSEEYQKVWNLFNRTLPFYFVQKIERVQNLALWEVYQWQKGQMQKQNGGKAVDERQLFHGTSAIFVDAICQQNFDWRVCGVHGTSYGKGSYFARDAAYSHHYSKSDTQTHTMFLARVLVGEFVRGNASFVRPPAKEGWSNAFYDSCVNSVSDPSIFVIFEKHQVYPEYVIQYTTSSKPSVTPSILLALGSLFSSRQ

[6] = target: T5, Protein mono-ADP-ribosyltransferase PARP15 (Homo sapiens) (UniProt Q460N3); experiment: Inhibition of PARP15 (unknown origin)
T5 sequence (whole entry): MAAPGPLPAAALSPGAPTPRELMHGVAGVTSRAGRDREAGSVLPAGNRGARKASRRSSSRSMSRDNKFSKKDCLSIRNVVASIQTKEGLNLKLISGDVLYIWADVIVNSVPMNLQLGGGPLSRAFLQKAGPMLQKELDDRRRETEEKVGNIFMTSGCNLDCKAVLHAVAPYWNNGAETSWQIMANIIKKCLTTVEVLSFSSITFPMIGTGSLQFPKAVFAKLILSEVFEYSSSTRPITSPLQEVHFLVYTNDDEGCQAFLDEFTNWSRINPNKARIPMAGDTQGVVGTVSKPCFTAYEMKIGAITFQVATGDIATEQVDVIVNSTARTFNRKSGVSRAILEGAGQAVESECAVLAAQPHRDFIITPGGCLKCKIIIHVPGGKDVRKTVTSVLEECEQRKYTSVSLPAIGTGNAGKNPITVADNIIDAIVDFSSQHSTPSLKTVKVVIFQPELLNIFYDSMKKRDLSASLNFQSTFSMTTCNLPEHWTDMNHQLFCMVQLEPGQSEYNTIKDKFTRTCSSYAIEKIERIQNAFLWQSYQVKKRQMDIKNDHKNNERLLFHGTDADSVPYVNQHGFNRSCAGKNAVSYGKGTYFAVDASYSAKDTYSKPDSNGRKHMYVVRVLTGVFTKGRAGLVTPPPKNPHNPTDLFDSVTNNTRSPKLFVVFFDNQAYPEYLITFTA

Chain of Protein mono-ADP-ribosyltransferase PARP6 (Homo sapiens) (Q2NL67 whole entry): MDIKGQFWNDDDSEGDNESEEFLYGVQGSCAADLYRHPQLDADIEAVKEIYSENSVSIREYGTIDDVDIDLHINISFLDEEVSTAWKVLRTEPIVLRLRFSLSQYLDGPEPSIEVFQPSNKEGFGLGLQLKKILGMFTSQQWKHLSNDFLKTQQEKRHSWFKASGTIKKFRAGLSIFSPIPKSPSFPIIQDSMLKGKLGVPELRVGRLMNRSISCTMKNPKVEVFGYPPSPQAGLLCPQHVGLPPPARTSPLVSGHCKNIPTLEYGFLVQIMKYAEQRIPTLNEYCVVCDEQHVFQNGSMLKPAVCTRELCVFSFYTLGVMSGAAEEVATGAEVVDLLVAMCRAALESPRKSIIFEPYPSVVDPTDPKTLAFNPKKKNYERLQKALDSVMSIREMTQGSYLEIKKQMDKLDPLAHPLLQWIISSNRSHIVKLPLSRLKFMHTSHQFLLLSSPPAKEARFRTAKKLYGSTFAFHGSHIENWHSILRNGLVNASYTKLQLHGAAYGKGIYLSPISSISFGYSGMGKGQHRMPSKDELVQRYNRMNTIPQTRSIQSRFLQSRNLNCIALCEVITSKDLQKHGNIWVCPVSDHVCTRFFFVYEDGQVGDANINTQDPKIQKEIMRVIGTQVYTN

| SMILES | inhibition [1] | inhibition [2] | inhibition [3] | inhibition [4] | inhibition [5] | inhibition [6] |
| --- | --- | --- | --- | --- | --- | --- |
| CNC(=O)[C@H](CNC(=O)CCn1c(=O)[nH]c(=O)c2ccccc21)NC(=O)c1cnc2ccccc2c1 | inactive | inactive | inactive | inactive | inactive | inactive |
| Cc1cc(OCC(=O)NCCNC(=O)c2cccc(COc3ccccc3C(N)=O)c2)c2c3c(c(=O)oc2c1)CCC3 | inactive | inactive | inactive | inactive | inactive | Active |

— ChEMBL document CHEMBL5331077, “Combining pharmacophore models derived from DNA-encoded chemical libraries with structure-based exploration to predict Tankyrase 1 inhibitors” (Eur J Med Chem, 2023)
